One assay concerns the target T1, Os3β-2 fusion protein (Oryza sativa subsp. japonica, UniProt Q9FU53, G53R).
T1 construct: a full-length cDNA is synthesized by RT-PCR using primers provided with restriction enzyme sites and subcloned into multi-cloning sites of the pMAL-c2 expression vector; made in house; host or cells: E. coli JM109
The assay is described as follows: Enzymatic activity assay of purified recombinant Os3β-2 fusion protein with gibberellin substrates, products identified by GC-MS. Particulars: amylose-resin purified Os3β-2 fusion protein, cofactors ascorbate, ferrous iron, 2-ketoglutarate. It counts as biochemical, rice (Oryza sativa). As to the method: (§1) cDNAs for the predicted protein-coding regions of the Os3β-1 and Os3β-2 genes were each inserted into the pMAL-c2 expression vector (New England Biolabs, Beverly, Mass.) in the sense orientation to obtain a fusion translation product. The constructs thus obtained, pMAL-Os3β-1 and pMAL-Os3β-2, were expressed in E. coli strain JM109. Bacterial cells were cultured by shaking in 2×YT medium containing 100 mg/L ampicillin at 37° C. overnight. Then, the culture was diluted 100-fold with a fresh 2×YT medium containing 100 mg/L ampicillin, and further cultured with shaking at 30° C. Four hours later, IPTG was added to the culture to a final concentration of 1 mM, and the mixture was incubated with shaking at 17° C. for further 18 h. After the completion of culturing, the bacterial cells were collected, washed with a washing buffer (containing 50 mM Tris-HCl (pH 8.0), 10% (w/v) glycerol, and 2 mM DTT), suspended in the washing buffer containing lysozyme (1 mg/ml), and allowed to stand for 30 min on ice.
(§2) The cell lysate thus obtained was sonicated, centrifuged, and the supernatant was subjected to SDS-PAGE to confirm the expression of the fusion protein. For the assay of enzymatic activity of the Os3β-1 fusion protein, the supernatant was incubated with various gibberellins and cofactors (ascorbate, ferrous iron, and 2-ketoglutarate). For the activity assay of the Os3β-2 fusion protein, the supernatant was purified on a column of amylose resin according to the method described in the manual, and the purified protein thus obtained was similarly incubated as described above. Metabolized gibberellins were identified using GC-MS.

Another assay addresses T2, Os3β-1 fusion protein (Oryza sativa subsp. japonica, UniProt Q6AT12, A27T/D23H/DEL15-17/DUP228-228).
T2 construct: a full-length cDNA is synthesized by RT-PCR using primers provided with restriction enzyme sites and subcloned into multi-cloning sites of the pMAL-c2 expression vector; made in house; host or cells: E. coli JM109
Briefly: Enzymatic activity assay of recombinant Os3β-1 fusion protein with gibberellin substrates, products identified by GC-MS. The following applies: E. coli supernatant with Os3β-1 fusion protein, cofactors ascorbate, ferrous iron, 2-ketoglutarate. It is filed as biochemical, rice (Oryza sativa). As to the method: as §1, §2

“Also recorded” adds a separate entry of the source.

T2 sequence (Q6AT12 other isoform, or with tags, fused parts or gaps DEL15-17/D23H/A27T/DUP228-228): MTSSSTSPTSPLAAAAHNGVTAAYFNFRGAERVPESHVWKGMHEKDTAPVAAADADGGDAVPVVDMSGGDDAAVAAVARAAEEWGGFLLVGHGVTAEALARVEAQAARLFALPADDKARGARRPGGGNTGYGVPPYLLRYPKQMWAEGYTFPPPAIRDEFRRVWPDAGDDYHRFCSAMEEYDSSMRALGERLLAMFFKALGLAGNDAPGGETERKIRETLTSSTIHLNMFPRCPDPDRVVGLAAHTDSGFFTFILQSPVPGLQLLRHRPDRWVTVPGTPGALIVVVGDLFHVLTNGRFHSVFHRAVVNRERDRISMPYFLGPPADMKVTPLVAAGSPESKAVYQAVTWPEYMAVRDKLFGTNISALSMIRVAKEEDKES
T1 sequence (Q9FU53 whole entry G53R, the tested form may be a part): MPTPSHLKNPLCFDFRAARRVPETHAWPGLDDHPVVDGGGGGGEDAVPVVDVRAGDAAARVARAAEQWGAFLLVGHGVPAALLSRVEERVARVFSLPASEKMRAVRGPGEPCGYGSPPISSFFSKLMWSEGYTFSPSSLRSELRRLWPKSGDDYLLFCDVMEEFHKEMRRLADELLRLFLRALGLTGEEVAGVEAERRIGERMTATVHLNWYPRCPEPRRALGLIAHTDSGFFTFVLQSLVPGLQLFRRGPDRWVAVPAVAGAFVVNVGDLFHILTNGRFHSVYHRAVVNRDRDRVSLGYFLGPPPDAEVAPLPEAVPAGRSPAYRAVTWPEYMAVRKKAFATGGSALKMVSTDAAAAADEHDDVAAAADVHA

As for `C=C1C[C@]23C[C@@]1(O)CC[C@H]2[C@@]12CC=C[C@@](C)(C(=O)O1)[C@H]2[C@@H]3C(=O)O` [GA5], the “Metabolized gibberellins (reaction products) from the substrate” value (from here on “Metabolized gibberellins”) on Os3β-2 fusion protein was “produced the corresponding 3β-hydroxylated gibberellins (GA3, GA4, GA1, and GA38); also recorded: production of the corresponding 3β-hydroxylated gibberellins, GA3, GA4, GA1, and GA38, respectively”; on Os3β-1 fusion protein it was “only the corresponding 3β-hydroxylated gibberellins (GA3 and GA88) were obtained; also recorded: produced the corresponding 3β-hydroxylated gibberellins, GA3 and GA88, respectively”. For the compound `C=C1C[C@]23C[C@@]1(O)CC[C@H]2[C@@]12CCC[C@@](C)(C(=O)OC1)[C@H]2[C@@H]3C(=O)O` [GA44], the “Metabolized gibberellins” value at Os3β-2 fusion protein is “produced the corresponding 3β-hydroxylated gibberellins (GA3, GA4, GA1, and GA38); also recorded: production of the corresponding 3β-hydroxylated gibberellins, GA3, GA4, GA1, and GA38, respectively”; at Os3β-1 fusion protein, “only the corresponding 3β-hydroxylated gibberellins (GA3 and GA88) were obtained; also recorded: produced the corresponding 3β-hydroxylated gibberellins, GA3 and GA88, respectively”. Regarding `C=C1C[C@]23C[C@H]1CC[C@H]2[C@@]12CCC[C@@](C)(C(=O)O1)[C@H]2[C@@H]3C(=O)O` [GA9], the “Metabolized gibberellins” value on Os3β-2 fusion protein was “produced the corresponding 3β-hydroxylated gibberellins (GA3, GA4, GA1, and GA38); also recorded: production of the corresponding 3β-hydroxylated gibberellins, GA3, GA4, GA1, and GA38, respectively”; on Os3β-1 fusion protein it was “synthesis of GA4 (3β-hydroxylation), GA7 (2,3-unsaturation and 3β-hydroxylation), and GA34 (2β-hydroxylation) were confirmed; also recorded: catalyzed the production of GA4 (3β-hydroxylation), GA7 (2,3-unsaturation and 3β-hydroxylation), and GA34 (2β-hydroxylation)”. Regarding `C=C1C[C@]23C[C@@]1(O)CC[C@H]2[C@@]12CCC[C@@](C)(C(=O)O1)[C@H]2[C@@H]3C(=O)O` [GA20], the “Metabolized gibberellins” value on Os3β-2 fusion protein is “produced the corresponding 3β-hydroxylated gibberellins (GA3, GA4, GA1, and GA38); also recorded: production of the corresponding 3β-hydroxylated gibberellins, GA3, GA4, GA1, and GA38, respectively”.
